From ChEMBL document CHEMBL3804759, “Pharmacological Targeting of AMP-Activated Protein Kinase and Opportunities for Computer-Aided Drug Design” (J Med Chem, 2016) come the findings set out here.

One test has as its target AMPK alpha1/beta2/gamma1 (Homo sapiens, UniProt O43741+P54619+Q13131). The test can be described thus: Binding affinity to human recombinant N-terminal AVI-tagged phosphorylated AMPK alpha1beta2gamma1 expressed in Escherichia coli BL21 cells after 1 to 10 mins by biolayer interferometry.
Test [1] has as its target AMP-activated protein kinase (AMPK) alpha-1/beta-1/gamma-1 (Homo sapiens, UniProt P54619+Q13131+Q9Y478). Description: Binding affinity to human recombinant N-terminal AVI-tagged phosphorylated AMPK alpha1beta1gamma1 expressed in Escherichia coli BL21 cells after 1 to 10 mins by biolayer interferometry. A general note: Biolayer interferometry detects binding as a change in optical thickness at a sensor tip.

The next test deals with HEK293. Description: Selectivity ratio of FLAG-tagged wild type AMPK beta1 (unknown origin) expressed in HEK293 cells over FLAG-tagged wild type AMPK beta2 (unknown origin) expressed in HEK293 cells. To be noted: Homo sapiens. The class given is cell-based.

Sequence of AMPK alpha1/beta2/gamma1 (O43741 whole entry): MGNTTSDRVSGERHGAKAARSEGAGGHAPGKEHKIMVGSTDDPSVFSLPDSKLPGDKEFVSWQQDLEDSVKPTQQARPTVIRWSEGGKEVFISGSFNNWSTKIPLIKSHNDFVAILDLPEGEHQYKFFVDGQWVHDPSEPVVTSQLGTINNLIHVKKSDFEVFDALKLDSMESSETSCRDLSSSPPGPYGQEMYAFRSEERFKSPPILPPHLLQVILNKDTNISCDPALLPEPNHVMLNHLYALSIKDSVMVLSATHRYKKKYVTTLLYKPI
Sequence of AMPK alpha1/beta2/gamma1 (P54619 whole entry): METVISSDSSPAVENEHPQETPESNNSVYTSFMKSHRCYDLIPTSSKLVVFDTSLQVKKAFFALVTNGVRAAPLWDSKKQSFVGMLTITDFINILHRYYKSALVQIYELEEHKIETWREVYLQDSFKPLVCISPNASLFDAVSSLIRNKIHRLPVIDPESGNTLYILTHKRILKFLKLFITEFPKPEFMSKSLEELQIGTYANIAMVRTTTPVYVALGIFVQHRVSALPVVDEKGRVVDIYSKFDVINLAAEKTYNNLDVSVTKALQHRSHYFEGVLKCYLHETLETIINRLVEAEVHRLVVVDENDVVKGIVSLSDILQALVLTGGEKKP
Sequence of AMPK alpha1/beta2/gamma1 (Q13131 whole entry): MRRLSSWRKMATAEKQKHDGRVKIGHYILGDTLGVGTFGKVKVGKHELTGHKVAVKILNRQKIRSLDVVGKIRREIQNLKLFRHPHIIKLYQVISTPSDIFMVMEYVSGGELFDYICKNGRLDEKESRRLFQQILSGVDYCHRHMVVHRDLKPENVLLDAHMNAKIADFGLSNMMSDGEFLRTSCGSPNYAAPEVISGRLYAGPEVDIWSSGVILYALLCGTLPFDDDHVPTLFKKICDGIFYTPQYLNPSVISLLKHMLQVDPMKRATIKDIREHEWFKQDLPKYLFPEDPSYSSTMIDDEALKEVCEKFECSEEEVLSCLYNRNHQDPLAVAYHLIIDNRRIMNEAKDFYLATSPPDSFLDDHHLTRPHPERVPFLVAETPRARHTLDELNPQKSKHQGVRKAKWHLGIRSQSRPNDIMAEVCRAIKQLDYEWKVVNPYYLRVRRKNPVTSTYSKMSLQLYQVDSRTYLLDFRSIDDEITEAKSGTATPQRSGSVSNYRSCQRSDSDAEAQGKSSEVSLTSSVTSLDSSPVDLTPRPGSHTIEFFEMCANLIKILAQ
Sequence of AMP-activated protein kinase (AMPK) alpha-1/beta-1/gamma-1 (P54619 whole entry): as the sequence (P54619 whole entry) above
Sequence of AMP-activated protein kinase (AMPK) alpha-1/beta-1/gamma-1 (Q9Y478 whole entry): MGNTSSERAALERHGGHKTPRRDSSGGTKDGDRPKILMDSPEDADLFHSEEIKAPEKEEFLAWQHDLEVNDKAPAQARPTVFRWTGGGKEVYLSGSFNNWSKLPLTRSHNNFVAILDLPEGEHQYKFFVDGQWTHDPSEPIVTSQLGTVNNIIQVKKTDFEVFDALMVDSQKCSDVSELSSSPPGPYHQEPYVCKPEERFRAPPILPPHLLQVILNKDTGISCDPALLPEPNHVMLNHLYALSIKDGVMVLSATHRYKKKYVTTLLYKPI
Sequence of AMP-activated protein kinase (AMPK) alpha-1/beta-1/gamma-1 (Q13131 whole entry): as the sequence (Q13131 whole entry) above

What is called Kd is the concentration at which binding is half-saturated. In the case of `N#Cc1c(O)c2c(-c3ccc(-c4ccccc4O)cc3)csc2[nH]c1=O`, the Kd on AMPK alpha1/beta2/gamma1 came to 14.5 µM; in test [1], 0.51 µM. Moreover, in the test with HEK293, the Selectivity ratio worked out at 30.
